Data reported in US20150259300A1, “4-(ORTHO)-FLUOROPHENYL-5-FLUOROPYRIMIDIN-2-YL AMINES CONTAINING A SULFONE GROUP” (BAYER PHARMA AKTIENGESELLSCHAFT, priority 2012, published 2015).

Columns and labels:
CDK9/CycT1 = molecular target: T1, CDK9/CycT1 (Homo sapiens, UniProt P50750); assay: CDK9/CycT1 high ATP kinase assay (TR-FRET, Method 1b); type: biochemical; settings: 2 mM ATP
T1 construct: Recombinant full-length His-tagged human CDK9 and CycT1; His; purchased Invitrogen PV4131; host or cells: insect cells
Experimental: 1b. CDK9/CyeT1 High ATP Kinase Assay
CDK9/CycT1-inhibitory activity of compounds of the present invention at a high ATP concentration after preincubation of enzyme and test compounds was quantified employing the CDK9/CycT1 TR-FRET assay as described in the following paragraphs.
Recombinant full-length His-tagged human CDK9 and CycT1, expressed in insect cells and purified by Ni-NTA affinity chromatography, were purchase from Invitrogen (Cat. No PV4131). As substrate for the kinase reaction biotinylated peptide biotin-Ttds-YISPLKSPYKISEG (C-terminus in amid form) was used which can be purchased e.g. form the company JERINI peptide technologies (Berlin, Germany).
For the assay 50 nl of a 100 fold concentrated solution of the test compound in DMSO was pipetted into a black low volume 384 well microtiter plate (Greiner Bio-One, Frickenhausen, Germany), 2 μl of a solution of CDK9/CycT1 in aqueous assay buffer [50 mM Tris/HCl pH 8.0, 10 mM MgCl2, 1.0 mM dithiothreitol, 0.1 mM sodium ortho-vanadate, 0.01% (v/v) Nonidet-P40 (Sigma)] were added and the mixture was incubated for […] at 22° C. to allow pre-binding of the test compounds to the enzyme before the start of the kinase reaction. Then the kinase reaction was started by the addition of 3 μl of a solution of adenosine-tri-phosphate (ATP, 3.3 mM=>final conc. in the 5 μl assay volume is 2 mM) and substrate (1.67 μM=>final conc. in the 5 μl assay volume is 1 μM) in assay buffer and the resulting mixture was incubated for a reaction time of […] at 22° C. The concentration of CDK9/CycT1 was adjusted depending of the activity of the enzyme lot and was chosen appropriate to have the assay in the linear range, typical concentrations were in the range of 0.5 ng/ml. The reaction was stopped by the addition of 5 μl of a solution of TR-FRET detection reagents ([…] streptavidine-XL665 [Cisbio Bioassays, Codolet, France] and 1 nM anti-RB(pSer807/pSer811)-antibody from BD Pharmingen [#558389] and 1.2 nM LANCE EU-W1024 labeled anti-mouse IgG antibody [Perkin-Elmer, product no. AD0077]) in an aqueous EDTA-solution (100 mM EDTA, 0.2% (w/v) bovine serum albumin in 100 mM HEPES/NaOH pH 7.0).
The resulting mixture was incubated 1 h at 22° C. to allow the formation of complex between the phosphorylated biotinylated peptide and the detection reagents. Subsequently the amount of phosphorylated substrate was evaluated by measurement of the resonance energy transfer from the Eu-chelate to the streptavidine-XL. Therefore, the fluorescence emissions at 620 nm and 665 nm after excitation at 350 nm was measured in a HTRF reader, e.g. a Rubystar (BMG Labtechnologies, Offenburg, Germany) or a Viewlux (Perkin-Elmer). The ratio of the emissions at 665 nm and at […] was taken as the measure for the amount of phosphorylated substrate. The data were normalised (enzyme reaction without inhibitor=0% inhibition, all other assay components but no enzyme=100% inhibition).

HeLa cells = assay: Proliferation assay (crystal violet), HeLa; type: cell-based; settings: Homo sapiens, 96 h, 4 days, read-out: Inhibition of HeLa cell proliferation IC50
Experimental: (§1) Cultivated tumour cells (HeLa, human cervical tumour cells, ATCC CCL-2; NCI-H460, human non-small cell lung carcinoma cells, ATCC HTB-177; A2780, human ovarian carcinoma cells, ECACC #93112519; DU 145, hormone-independent human prostate carcinoma cells, ATCC HTB-81; HeLa-MaTu-ADR, multidrug-resistant human cervical carcinoma cells, EPO-GmbH Berlin; Caco-2, human colorectal carcinoma cells, ATCC HTB-37; B 16F10, mouse melanoma cells, ATCC CRL-6475) were plated at a density of 5,000 cells/well (DU145, HeLa-MaTu-ADR), 3,000 cells/well (NCI-H460, HeLa), 2,500 cells/well (A2780), 1,500 cells/well (Caco-2), or 1,000 cells/well (B16F10) in a 96-well multititer plate in 200 μL of their respective growth medium supplemented 10% fetal calf serum. After 24 hours, the cells of one plate (zero-point plate) were stained with crystal violet (see below), while the medium of the other plates was replaced by fresh culture medium (200 to which the test substances were added in various concentrations (0 μM, as well as in the range of 0.001-10 μM; the final concentration of the solvent dimethyl sulfoxide was 0.5%). The cells were incubated for 4 days in the presence of test substances. Cell proliferation was determined by staining the cells with crystal violet: the cells were fixed by adding 20 μl/measuring point of an 11% glutaric aldehyde solution for 15 minutes at room temperature. After three washing cycles of the fixed cells with water, the plates were dried at room temperature. The cells were stained by adding 100 μl/measuring point of a 0.1% crystal violet solution (pH 3.0). After three washing cycles of the stained cells with water, the plates were dried at room temperature. The dye was dissolved by adding 100 μl/measuring point of a 10% acetic acid solution. The extinction was determined by photometry at a wavelength of 595 nm. The change of cell number, in percent, was calculated by normalization of the measured values to the extinction values of the zero-point plate (=0%) and the extinction of the untreated (0 μm) cells (=100%). The IC50 values (inhibitory concentration at 50% of maximal effect) were determined by means of a 4 parameter fit.

HeLa-MaTu-ADR cells = assay: Proliferation assay (crystal violet), HeLa-MaTu-ADR; type: cell-based; settings: Homo sapiens, 96 h, 4 days, read-out: Inhibition of HeLa-MaTu-ADR cell proliferation IC50
Experimental: as §1, with “After three washing cycles of the fixed cells with water, the plates were dried at room temperature. The cells were stained by adding 100 μl/measuring point of a 0.1% crystal violet solution (pH 3.0). After three washing cycles of the stained cells with water, the plates were dried at room temperature. The dye was dissolved by adding 100 μl/measuring point of a 10% acetic acid solution. The extinction was determined by photometry at a wavelength of 595 nm. The change of cell number, in percent, was calculated by normalization of the measured values to the extinction values of the zero-point plate (=0%) and the extinction of the untreated (0 μm) cells (=100%). The IC50 values (inhibitory concentration at 50% of maximal effect) were determined by means of a 4 parameter fit.” left out

NCI-H460 cells = assay: Proliferation assay (crystal violet), NCI-H460; type: cell-based; settings: Homo sapiens, 96 h; NCI-H460, 4 days; read-out: Inhibition of H460 cell proliferation IC50
Experimental: as §1, with “After three washing cycles of the fixed cells with water, the plates were dried at room temperature. The cells were stained by adding 100 μl/measuring point of a 0.1% crystal violet solution (pH 3.0). After three washing cycles of the stained cells with water, the plates were dried at room temperature. The dye was dissolved by adding 100 μl/measuring point of a 10% acetic acid solution. The extinction was determined by photometry at a wavelength of 595 nm. The change of cell number, in percent, was calculated by normalization of the measured values to the extinction values of the zero-point plate (=0%) and the extinction of the untreated (0 μm) cells (=100%). The IC50 values (inhibitory concentration at 50% of maximal effect) were determined by means of a 4 parameter fit.” left out

DU145 cells = assay: Proliferation assay (crystal violet), DU145; type: cell-based; settings: Homo sapiens, DU-145, 96 h; DU145, 4 days; read-out: Inhibition of DU145 cell proliferation IC50
Experimental: as §1, with “After three washing cycles of the fixed cells with water, the plates were dried at room temperature. The cells were stained by adding 100 μl/measuring point of a 0.1% crystal violet solution (pH 3.0). After three washing cycles of the stained cells with water, the plates were dried at room temperature. The dye was dissolved by adding 100 μl/measuring point of a 10% acetic acid solution. The extinction was determined by photometry at a wavelength of 595 nm. The change of cell number, in percent, was calculated by normalization of the measured values to the extinction values of the zero-point plate (=0%) and the extinction of the untreated (0 μm) cells (=100%). The IC50 values (inhibitory concentration at 50% of maximal effect) were determined by means of a 4 parameter fit.” left out

Caco-2 cells = assay: Proliferation assay (crystal violet), Caco-2; type: cell-based; settings: Homo sapiens, 96 h; Caco-2, 4 days; read-out: Inhibition of Caco-2 cell proliferation IC50
Experimental: as §1, with “After three washing cycles of the fixed cells with water, the plates were dried at room temperature. The cells were stained by adding 100 μl/measuring point of a 0.1% crystal violet solution (pH 3.0). After three washing cycles of the stained cells with water, the plates were dried at room temperature. The dye was dissolved by adding 100 μl/measuring point of a 10% acetic acid solution. The extinction was determined by photometry at a wavelength of 595 nm. The change of cell number, in percent, was calculated by normalization of the measured values to the extinction values of the zero-point plate (=0%) and the extinction of the untreated (0 μm) cells (=100%). The IC50 values (inhibitory concentration at 50% of maximal effect) were determined by means of a 4 parameter fit.” left out

B16F10 cells = assay: Proliferation assay (crystal violet), B16F10; type: cell-based; settings: Mus musculus, B16-F10, 96 h; B16F10, 4 days; read-out: Inhibition of B16F10 cell proliferation IC50
Experimental: as §1, with “After three washing cycles of the fixed cells with water, the plates were dried at room temperature. The cells were stained by adding 100 μl/measuring point of a 0.1% crystal violet solution (pH 3.0). After three washing cycles of the stained cells with water, the plates were dried at room temperature. The dye was dissolved by adding 100 μl/measuring point of a 10% acetic acid solution. The extinction was determined by photometry at a wavelength of 595 nm. The change of cell number, in percent, was calculated by normalization of the measured values to the extinction values of the zero-point plate (=0%) and the extinction of the untreated (0 μm) cells (=100%). The IC50 values (inhibitory concentration at 50% of maximal effect) were determined by means of a 4 parameter fit.” left out

T1 sequence (P50750 whole entry): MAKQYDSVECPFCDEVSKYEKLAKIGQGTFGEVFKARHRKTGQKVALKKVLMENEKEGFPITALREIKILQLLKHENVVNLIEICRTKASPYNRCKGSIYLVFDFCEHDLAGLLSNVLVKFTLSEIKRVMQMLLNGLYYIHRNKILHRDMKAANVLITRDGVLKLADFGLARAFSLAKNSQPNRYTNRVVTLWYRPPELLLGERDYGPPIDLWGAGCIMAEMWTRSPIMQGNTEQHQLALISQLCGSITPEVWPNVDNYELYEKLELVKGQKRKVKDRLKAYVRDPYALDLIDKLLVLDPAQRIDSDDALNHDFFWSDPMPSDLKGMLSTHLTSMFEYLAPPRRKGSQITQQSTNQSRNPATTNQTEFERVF
T1 sequence (O60563 whole entry partner): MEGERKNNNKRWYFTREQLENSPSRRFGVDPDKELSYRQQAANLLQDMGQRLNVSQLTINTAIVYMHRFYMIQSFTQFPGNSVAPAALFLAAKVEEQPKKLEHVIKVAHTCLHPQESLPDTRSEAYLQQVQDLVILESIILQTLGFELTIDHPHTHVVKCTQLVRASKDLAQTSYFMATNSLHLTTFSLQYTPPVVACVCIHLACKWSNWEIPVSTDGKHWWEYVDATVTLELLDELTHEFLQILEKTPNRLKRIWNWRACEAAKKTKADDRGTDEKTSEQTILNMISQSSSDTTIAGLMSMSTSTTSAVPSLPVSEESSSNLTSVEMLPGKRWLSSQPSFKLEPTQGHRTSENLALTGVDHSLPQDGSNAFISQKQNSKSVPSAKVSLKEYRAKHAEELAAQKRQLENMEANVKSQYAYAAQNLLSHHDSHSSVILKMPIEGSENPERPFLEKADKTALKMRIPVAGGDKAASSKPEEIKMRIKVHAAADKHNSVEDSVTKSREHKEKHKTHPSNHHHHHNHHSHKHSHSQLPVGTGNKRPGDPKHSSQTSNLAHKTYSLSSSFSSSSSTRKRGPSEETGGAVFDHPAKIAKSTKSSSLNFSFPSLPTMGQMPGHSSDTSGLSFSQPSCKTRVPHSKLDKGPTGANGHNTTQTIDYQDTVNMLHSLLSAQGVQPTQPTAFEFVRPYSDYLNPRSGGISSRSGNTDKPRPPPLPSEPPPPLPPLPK

Row | IC50 (CDK9/CycT1) [nM] | IC50 (HeLa cells) [nM] | SMILES | also measured
1 | 2280 | 3000 | CS(=O)(=O)Cc1cc(F)cc(Nc2ncc(F)c(-c3ccc(F)cc3F)n2)c1 [Example 10, 4-(2,4-Difluorophenyl)-5-fluoro-N-{3-fluoro-5-[(methylsulfonyl)methyl]phenyl}pyrimidin-2-amine] | 
2 | 271 | 1000 | CS(=O)(=O)Cc1cc(F)cc(Nc2ncc(F)c(-c3ccc(F)c(F)c3F)n2)c1 [Example 12, 5-fluoro-N-{3-fluoro-5-[(methylsulfonyl)methyl]phenyl}-4-(2,3,4-trifluorophenyl)pyrimidin-2-amine] | 
3 | 2260 |  | COCCS(=O)(=O)Cc1cccc(Nc2ncc(F)c(-c3ccc(F)cc3F)n2)c1 [Example 4, 4-(2,4-Difluorophenyl)-5-fluoro-N-(3-{[(2-methoxyethyl)sulfonyl]methyl}phenyl)pyrimidin-2-amine] | 
4 | 904 | 3000 | CCCS(=O)(=O)Cc1cccc(Nc2ncc(F)c(-c3ccc(F)cc3F)n2)c1 [Example 8, 4-(2,4-difluorophenyl)-5-fluoro-N-{3-[(propylsulfonyl)methyl]phenyl}pyrimidin-2-amine] | 
5 | 2260 | 3000 | CC(C)S(=O)(=O)Cc1cccc(Nc2ncc(F)c(-c3ccc(F)cc3F)n2)c1 [Example 2, 4-(2,4-Difluorophenyl)-5-fluoro-N-{3-[(propan-2-ylsulfonyl)methyl]phenyl}pyrimidin-2-amine] | 
6 | > 20000 | 2960 | CS(=O)(=O)Cc1cc(F)cc(Nc2ncc(F)c(-c3cc(F)c(F)cc3F)n2)c1 [Example 11, 5-Fluoro-N-{3-fluoro-5-[(methylsulfonyl)methyl]phenyl}-4-(2,4,5-trifluorophenyl)pyrimidin-2-amine] | 
7 | 330 | 3000 | O=S(=O)(Cc1cccc(Nc2ncc(F)c(-c3ccc(F)cc3F)n2)c1)C1CC1 [Example 9, N-{3-[(Cyclopropylsulfonyl)methyl]phenyl}-4-(2,4-difluorophenyl)-5-fluoropyrimidin-2-amine] | 
8 | 99 | 617 | CS(=O)(=O)Cc1cc(Nc2ncc(F)c(-c3ccc(F)cc3F)n2)cc(S(F)(F)(F)(F)F)c1 [Example 6, 4-(2,4-Difluorophenyl)-5-fluoro-N-{3-[(methylsulfonyl)methyl]-5-(pentafluoro-λ^6-sulfanyl)phenyl}pyrimidin-2-amine] | IC50 (HeLa-MaTu-ADR cells): 220 nM; IC50 (NCI-H460 cells): 386 nM; IC50 (DU145 cells): 352 nM; IC50 (Caco-2 cells): 382 nM; IC50 (B16F10 cells): 951 nM
9 | 14500 | 3000 | CC(C)(C)S(=O)(=O)Cc1cccc(Nc2ncc(F)c(-c3ccc(F)cc3F)n2)c1 [Example 3, N-{3-[(tert-Butylsulfonyl)methyl]phenyl}-4-(2,4-difluorophenyl)-5-fluoropyrimidin-2-amine] | 
10 | 858 |  | CS(=O)(=O)Cc1cccc(Nc2ncc(F)c(-c3ccc(F)cc3F)n2)c1 [Example 5, 4-(2,4-Difluorophenyl)-5-fluoro-N-{3-[(methylsulfonyl)methyl]phenyl}pyrimidin-2-amine] | 
11 | 2280 | 3000 | CCCS(=O)(=O)Cc1cc(F)cc(Nc2ncc(F)c(-c3ccc(F)cc3F)n2)c1 [Example 13, 4-(2,4-Difluorophenyl)-5-fluoro-N-{3-fluoro-5-[(propylsulfonyl)methyl]phenyl}pyrimidin-2-amine] | 
